Patent US8323680B1, “Nutritional composition” (Nestec S.A., priority 1999, dated 2012)

Tests used:
male Rj:NMRI mice = assay: ELEVATED PLUS MAZE TEST, number of entries in the closed arms; assay type: in vivo; settings: for Number of Entries in the Closed Arms, average entries: diets for 42 days, agent intraperitoneally 60 minutes before test
Experimental: In order to show the biological activity of the composition of the present invention on animal's behaviour the effect of dietary poly-unsaturated fatty acids with and without a CB-1 receptor antagonist on anxiolytic-like responses in mice were tested. To this end, the ELEVATED PLUS MAZE TEST was applied (adapted after Handley and Mithani (Naunyn. Schmied. Arch. Pharmacol. 327: 1-5, 1984).
For the experiments male Rj:NMRI mice, obtained from Elevage Janvier, Le Genest-Saint-Isle France and weighing 10-11 g at delivery and 33-51 grams on day 42 were used. The mice were housed 10 per cage in wire cages with bedding and normal light cycle. They received ad libitum quantities of bottled distilled water and purified powdered diets (7.5 g/mouse) in ceramic cups (10/group) for 42 days. The Food was maintained at −80° C. in daily aliquots under nitrogen, thawed each afternoon before administration to mice. Uneaten food was discarded daily.
The principle of the test resides in that anxiolytic agents increase the number of entries into the open and often the closed arms of the […], mice should want to move and explore the spaces of the open and closed arms rather than staying still in the middle).
Mice were given the following agents intraperitoneally 60 minutes before the Plus Maze test:
All diets contained 90% fat-free AIN93G rodent diet in powder form (Lot 9350-5, Dyets, Inc., Bethlehem, Pa.), 0.4% milk fat, 1.2% palm olein, 1.9% Trisun sunflower oil, 1.5% soybean oil and 2.1-5.1% medium chain triacylglycerol oil. Parts of the medium chain triacylglycerol oil were replaced with 1.1% algal oil (providing 0.5 dietary wt.-% arachidonic acid) in diet D, 1.9% fish oil (providing 0.5 dietary wt.-% docosahexaenoic acid) in diet E, and with 1.1% algal oil and 1.9% fish oil in diets F and G. Dietary groups are summarized in the table below:
The body weight, weight gain and the food intake of the mice was monitored throughout the experiment. […]

animals = settings: injected into animals; cited from earlier work
[1] = Effects of oral administration of cannabimimetic lipids on ambulation, rearing, immobility, analgesia, body temperature and fecal output (FIG. 3-5); assay type: in vivo; settings: for immobility, difference from control group / rearing, difference from control group / body temperature, difference from control group: p<0.01-0.05, ANOVA, Newman-Keuls
mice = settings: oral, anandamide 300 mgkg body weight−1, 2-arachidonoyl glycerol 400 mgkg body weight−1; cited from earlier work

Row | Molecule | Number of Entries in the Closed Arms, average entries (male Rj:NMRI mice) | Number of Entries in the Closed Arms, difference vs. group A (male Rj:NMRI mice; p-value = 0.19) | effects of pure doses when injected (animals) | immobility, difference from control group ([1]; oral administration) | rearing, difference from control group ([1]; oral administration) | body temperature, difference from control group [1] | bioactivity when taken orally (mice) | analgesia ([1]; oral administration)
1 | Cc1c(C(=O)NN2CCCCC2)nn(-c2ccc(Cl)cc2Cl)c1-c1ccc(I)cc1 [C] | 2.3 | There was no significant difference (p-value = 0.19). |  |  |  |  |  | 
2 | CCCCCCCC/C=C\CCCCCCCC(N)=O [oleamide] |  |  | calming effects and effects on the immune system | significantly different | significantly different | significantly different |  | 
3 | 2 arachidonylglycerol [Diet 2-AG] |  |  | calming effects and effects on the immune system | significantly different | significantly different | significantly different | have bioactivity | 
4 | CN1C(=O)CC(=O)N(c2ccccc2)c2cc(Cl)ccc21 [Clobazam] | 6.3 |  |  |  |  |  |  | 
5 | N-arachidonylethanolamine [anandamide] |  |  | calming effects and effects on the immune system | significantly different | significantly different | significantly different | have bioactivity | 
6 | CCCCCc1cc(O)c2c(c1)OC(C)(C)[C@@H]1CCC(C)=C[C@@H]21 [THC, 9-tetrahydrocannabinol] |  |  |  | significantly different | significantly different | significantly different |  | significantly increased analgesia
